Calls of active or inactive are those of the source. How the calls were made is not given here.
What follows are compounds tested against X-box-binding protein 1 (Homo sapiens) (UniProt P17861) (assay: XBP1 reporter suppression in cells – counter-screen, dose response (AID 504313;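 further: CHO cells carrying an XBP1 reporter stimulated with tunicamycin; potency is for inhibition of the tunicamycin-induced reporter signal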)). Conditions: XBP1 reporter cell assay, percent of control.

Compound | IC50
Cc1ccc2[nH]c(O)c(N=NC(=O)CCc3ccccc3)c2c1Br | inactive
COc1ccc(-c2nn(-c3ccccc3)cc2/C=N/NC(=O)c2ccc(Br)o2)cc1 | inactive
CCOc1cc(NC(=O)CCl)c(OCC)cc1NC(=O)CCl | > 10 µM (inactive)
NC(=O)CC(NC(=O)Cc1cccc2ccccc12)c1ccc(NCc2ccc(F)cc2)c([N+](=O)[O-])c1 (stereo not drawn) | > 10 µM (inactive)
OC(CNCC(c1ccc(Cl)cc1Cl)c1c[nH]c2ccccc12)c1ccccc1 (stereo not drawn) | inactive
O=C(Nc1ccc(OC(F)F)cc1)Nc1cccc(C(F)(F)F)c1 | > 10 µM (inactive)
S=c1[nH]nc(C2CCCCC2)n1/N=C/C=C/c1ccccc1 | > 10 µM (inactive)
O=C(Nc1ccc(Cl)c(C(F)(F)F)c1)NC1CC2CCCC(C1)N2Cc1ccccc1 (stereo not drawn) | > 10 µM (inactive)
CC(C)NC(=O)c1ccccc1NC(=O)/C=C/c1cccc([N+](=O)[O-])c1 | > 10 µM (inactive)
CCc1ccc2[nH]c(=O)c(C(c3nnnn3Cc3ccco3)N3CCC(C)CC3)cc2c1 (stereo not drawn) | > 10 µM (inactive)
CC1=CCC[C@@H]2[C@@](C)(CC/C(C)=C/C(=O)O)[C@H](C)CC[C@@]12C | > 10 µM (inactive)
O=C(CCl)Nc1cn(-c2ccccc2)nc1-c1ccc(F)cc1 | > 10 µM (inactive)
CCCC(=O)NC(NC(=S)Nc1ccc(N=Nc2ccccc2)cc1)C(Cl)(Cl)Cl (stereo not drawn) | > 10 µM (inactive)
Cc1cc(Br)c2c(c1)/C(=C/C(=O)c1cccs1)C(=O)N2 | > 10 µM (inactive)
CCN1/C(=C\C=C\C2=[N+](CC)c3ccccc3C2(C)C)C(C)(C)c2ccccc21 | < 0.16 µM
Nc1c(C(=O)Nc2ccccc2F)sc2nc(-c3cccnc3)ccc12 | > 10 µM (inactive)
CCN1CCN(Cc2ccc(NC(=O)c3ccc(C)c(NC(=O)c4c[nH]c5cc(C(F)(F)F)ccc5c4=O)c3)cc2C(F)(F)F)CC1 | < 0.16 µM
O=C1C(C2=NC(c3ccccn3)C3C(=O)N(c4ccc(OC(F)(F)F)cc4)C(=O)C23)=C(O)c2ccccc21 (stereo not drawn) | inactive
O=C(CNC1CCCCCC1)Nc1ccccc1N1CCCCC1 | inactive
O/N=C(\c1ccc(Cl)cc1Cl)c1ncc(C(F)(F)F)cc1Cl | 6.07 µM
COc1cc(CNCc2ccccn2)ccc1OCc1ccc(Cl)cc1Cl | > 10 µM (inactive)
COc1ccc(-c2[nH]ncc2N=Nc2cc(C)cc(C)c2)cc1 | > 10 µM (inactive)
CC(C)C[C@H](NC(=O)OC(C)(C)C)C(=O)N/N=C/C1=Cc2ccccc2OC1C (stereo partly drawn) | inactive
Clc1ccc2[nH]c(-c3ccccc3)cc2c1 | > 10 µM (inactive)

Compound | IC50
CCOc1cc(C)c(-c2onc(C(F)(F)F)c2-c2csc(C)n2)c(O)c1 | inactive
COc1ccccc1-c1cc(C(F)(F)F)nc(S(=O)(=O)CCCC(=O)NC(C)C)n1 | inactive
CCOC(=O)c1ccc(NC(=O)c2nc[nH]c2C(=O)N[C@@H](C)C(=O)OC(C)(C)C)cc1 | inactive
CCOC(=O)c1cnc(-n2nc(C)cc2C)nc1Nc1ccc(O)cc1 | 1.26 µM
O=C1C(Nc2ccccc2)=C/C(=N/S(=O)(=O)c2cccs2)c2ccccc21 | 1.17 µM
CN1CCN(c2ccc(-c3ccc4ccccc4n3)cc2)CC1 | < 0.16 µM (inactive)
N#CC1=C(N)N2C(=C(C#N)C1c1ccc(Br)cc1)Nc1ccccc12 (stereo not drawn) | inactive
COc1ccc(C2CC(c3c(-c4ccccc4)c4cc(Cl)ccc4[nH]c3=O)=NN2S(C)(=O)=O)cc1OC (stereo not drawn) | inactive
O=C(OCn1ncc(Br)c(Br)c1=O)c1ccccc1Cl | 4.81 µM
O=Cc1s/c(=N\S(=O)(=O)c2ccccc2)n(CCCCl)c1Cl | inactive
C/C=C(\C)C(=O)OC1C(C)=C2C(C1OC(=O)CCCCC)C(C)(OC(C)=O)CC(OC(=O)CCC)C1(O)C2OC(=O)C1(C)O (stereo not drawn) | 5.03 µM
C=CCN1C(=O)/C(=C/c2ccc(OC(C)=O)c(OCC)c2[N+](=O)[O-])SC1=S | inactive
O=C(CCl)Nc1ccc(Sc2ccc(NC(=O)CCl)cc2)cc1 | 4.37 µM
CN(CCCC[C@H](CNCc1ccc(-c2ccccc2)cc1)N1C[C@H](c2ccccc2)N(CCc2ccc(Cl)c(Cl)c2)C(=O)C1=O)Cc1ccc(-c2ccccc2)cc1 | inactive
CCCCNS(=O)(=O)c1ccc2nc(-c3cccnc3)cc(C(=O)NC3CCCC3)c2c1 | > 10 µM (inactive)
CN1/C(=C\C=C\C2=[N+](C)c3ccc4ccccc4c3C2(C)C)C(C)(C)c2ccccc21 | < 0.16 µM
Cc1cc(C)c(S(=O)(=O)ON2C(=O)c3ccccc3C2=O)cc1C | > 10 µM (inactive)
Cc1ccc(CNCC(O)(c2ccccc2)c2ccc(Cl)cc2)cc1 (stereo not drawn) | inactive
COc1ccc(-c2cnc(OC(C)(C)C)nc2OC(C)(C)C)cc1OC | inactive
CCOc1cc(/C=N/NC(=O)Cc2ccc(C(F)(F)F)cc2[N+](=O)[O-])c(Br)cc1OC | inactive
COc1cc(C)nc(N2CCCC(C(=O)Nc3cccc(Cl)c3C)C2)n1 (stereo not drawn) | > 10 µM (inactive)
CC(C)Cn1c(N)c(C(=O)COC(=O)C2CCCCC2)c(=O)n(C)c1=O | > 10 µM (inactive)
CCCOc1ccc(Cc2c(Cl)nc(SC)nc2NC)cc1 | > 10 µM (inactive)
Cc1cccnc1NC(=O)c1c(O)c2ccccc2n(C)c1=O | inactive

Source: PubChem BioAssay AID504313 (Emory University Molecular Libraries Screening Center, 2011)
